Measurements published in US5166214A, “Use of imidazoles for the treatment of atherosclerosis” (priority 1990, dated 1992).
Where two headings read alike, the source gives them in different places.

Experiments:
[1] = target: T1, Acyl-CoA: Cholesterol Acyltransferase (ACAT) (Rattus norvegicus, UniProt Q7TQM4); assay: Inhibition of acyl-CoA: cholesterol acyltransferase (ACAT) in hepatic microsomes (in vitro); assay type: biochemical, rat (male Sprague Dawley); conditions: 75 μM 14C-oleoyl-CoA, pH 7.4, 37° C.
T1 construct: Microsomes were obtained by differential centrifugation; from tissue; host or cells: liver microsomes of male Sprague Dawley rats
T1 sequence (Q7TQM4 1-524): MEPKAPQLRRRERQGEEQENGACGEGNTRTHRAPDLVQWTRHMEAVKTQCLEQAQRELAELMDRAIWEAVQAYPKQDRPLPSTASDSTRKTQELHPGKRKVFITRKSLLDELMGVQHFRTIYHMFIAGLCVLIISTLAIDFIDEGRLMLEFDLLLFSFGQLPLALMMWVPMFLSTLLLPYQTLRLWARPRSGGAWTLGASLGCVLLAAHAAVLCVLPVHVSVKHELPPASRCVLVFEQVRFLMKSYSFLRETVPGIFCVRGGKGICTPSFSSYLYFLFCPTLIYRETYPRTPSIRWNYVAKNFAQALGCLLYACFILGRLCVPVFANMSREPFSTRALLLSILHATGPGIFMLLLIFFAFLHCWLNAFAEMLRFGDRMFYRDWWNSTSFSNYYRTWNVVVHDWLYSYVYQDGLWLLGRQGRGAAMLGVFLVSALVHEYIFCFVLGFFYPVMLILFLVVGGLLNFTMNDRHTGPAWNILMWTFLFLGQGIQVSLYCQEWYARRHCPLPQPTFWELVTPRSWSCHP
Description: A. Assay of the Inhibition of Acyl-CoA: Cholesterol Acyltransferase (ACAT) in Hepatic Microsomes
The ability of the compounds to inhibit ACAT, the enzyme responsible for the intracellular synthesis of cholesteryl esters, was tested as follows. Male Sprague Dawley rats weighing 150-300 g, were fed rat chow ad libitum. The animals were fasted for twenty-four hours prior to being sacrificed by decapitation. The livers were perfused in situ with 50 ml of cold 0.25M sucrose, excised, and homogenized in three volumes of 0.1M phosphate buffer, pH 7.4, that contained 0.5 mM EDTA (ethylenediaminetetraacetic acid), 1.0 mM glutathione, 0.25M sucrose and […]. Microsomes were obtained by differential centrifugation; the supernatant from an initial spin at 15,000×g for 15 minutes was centrifuged at 105,000×g for 1 hour to pellet the microsomes. The microsomes were suspended in homogenization buffer, reisolated by centrifugation, and stored at -70° C. Microsomes were used within one month of preparation.
The control assay in a final volume of 200 μl consisted of 200 μg of microsomal protein, 75 μM ^14 C-oleoyl-CoA (10,000 dpm/nmol) in 0.1M phosphate, pH 7.4, that contained 1 mM glutathione. Compounds were added in 5 μl of DMSO (dimethyl sulfoxide) and additional controls were run with DMSO only. All components, except the oleoyl-CoA, were preincubated for 15 min. at 37° C. prior to the initiation of the reaction by the addition of oleoyl-CoA. The assay was terminated after 10 min by the addition of 4 ml of chloroform:methanol (2:1, v/v). 20,000 dpm of ^3 H-cholesteryl oleate and 10 μg of unlabeled cholesteryl oleate and oleic acid were added as an internal standard and carriers, respectively. After allowing 10 min. for lipid extraction, the samples were centrifuged at 1,000×g for 10 min. to separate the solvent layers. The chloroform layer containing the neutral lipids was spotted onto a Baker SI250-Pa silica gel TLC plate and the plate developed using a hexane: diethyl ether: acetic acid (170:30:1 v/v/v) mobile phase. The lipids were visualized by their interaction with iodine vapor and the cholesteryl ester spot was scraped into a scintillation vial and counted.

[2] = tested on: murine macrophage-like cell line J774.A1; assay: Inhibition of cholesterol esterification in mammalian cells (macrophage assay); assay type: cell-based; conditions: J774.A1 macrophages loaded with ac-LDL, 14C-oleic acid; read-out: Cholesterol Esterification IC50
Method in brief: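 Murine J774.A1 macrophages at 37 °C received 34 μg acetylated human LDL in 10% FBS-DMEM from 24 h, compound in DMSO at 41 h, then a 0.1 mM 14C-oleic acid–BSA pulse from 43 to 45 h. Labelled cholesteryl ester was separated by TLC, counted and normalised to Lowry protein.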

[3] = rat hepatic microsomes, read-out: In Vitro ACAT IC50

| SMILES | IC50 [1, 3] [nM] | IC50 [2] [nM] | IC50 ([1]; In Vitro ACAT IC50, rat hepatic microsomes) [nM] |
| --- | --- | --- | --- |
| CCCCCCCN(CCCCCSc1nc(-c2ccc(C)cc2)c(-c2ccc(C)cc2)[nH]1)C(=O)Nc1ccc(F)cc1F [Example 122, N-[5-[4,5-bis(4-methylphenyl)-1H-imidazol-2-ylthio]pentyl]-N'-(2,4-difluorophenyl)-N-heptylurea] | 80 | 300 | – |
| CCCCCCCCNC(=O)N(CCCCCSc1nc(-c2ccccc2)c(-c2ccccc2)[nH]1)c1ccccc1 [Example 207, N-[5-(4,5-diphenyl-1H-imidazol-2-ylthio)pentyl]-N'-octyl-N-phenylurea] | 9 | 600 | – |
| CCCCCCCN(CCCCCSc1nc(-c2ccccc2)c(-c2ccccc2)[nH]1)C(=O)Nc1ccccc1 [Example 2, N-[5-(4,5-diphenyl-1H-imidazol-2-ylthio)pentyl]-N-heptyl-N'-phenylurea] | 3 | 800 | – |
| CCCCCCCN(CCCCCSc1nc(CCC)c(CCC)[nH]1)C(=O)Nc1ccc(F)cc1F [Example 193, N'-(2,4-difluorophenyl)-N-[5-(4,5-dipropyl-1H-imidazol-2-ylthio)pentyl]-N-heptylurea] | 60 | 2700 | – |
| CCCCCCCN(CCCCCSc1nc(-c2ccccc2)c(-c2ccccc2)[nH]1)C(=O)OCCC [Example 407, Propyl [5-(4,5-diphenyl-1H-imidazol-2-ylthio)pentyl]heptylcarbamate] | 40 | 800 | – |
| CCCCCCCN(CCCCCSc1nc(-c2ccc(N(C)C)cc2)c(-c2ccc(N(C)C)cc2)[nH]1)C(=O)Nc1ccc(F)cc1F [Example 198] | 40 | 60 | – |
| CCCCCCCCOC(=O)N(CCCCCCC)CCCCCSc1nc(-c2ccccc2)c(-c2ccccc2)[nH]1 [Example 405, Octyl [5-(4,5-diphenyl-1H-imidazol-2-ylthio)pentyl]heptylcarbamate] | 500 | 3900 | – |
| CCCCCCCN(CCCCCSc1nc(-c2ccco2)c(-c2ccco2)[nH]1)C(=O)Nc1ccc(F)cc1F [Example 201] | 200 | 500 | – |
| CCCCCCCN(CCCCCSc1nc(-c2ccc(OC)cc2)c(-c2ccc(OC)cc2)[nH]1)C(=O)CC1CCCCC1 [Example 355, N-[5-[4,5-bis(4-methoxyphenyl)-1H-imidazol-2-ylthio]pentyl]-N-heptylcyclohexaneacetamide] | 10 | 30 | – |
| CCCCCCCN(CCCCCSc1nc(-c2ccccc2OC)c(-c2ccccc2OC)[nH]1)C(=O)Nc1ccc(F)cc1F [Example 196, N-[5-[4,5-bis(2-methoxyphenyl)-1H-imidazol-2-ylthio]pentyl]-N'-(2,4-difluorophenyl)-N-heptylurea] | 300 | 1400 | – |
| CCCCCCCN(CCCCCSc1nc(-c2ccccn2)c(-c2ccccn2)[nH]1)C(=O)Nc1ccc(F)cc1F [Example 107, N-[5-[4,5-bis(2-pyridinyl)-1H-imidazol-2-ylthio]pentyl]-N'-(2,4-difluorophenyl)-N-heptylurea] | 1000 | 2300 | – |
| CCCCCCCN(CCCCCSc1nc2c([nH]1)-c1ccccc1Oc1ccccc1-2)C(=O)Nc1ccc(F)cc1F [Example 212, N-[5-(1H-dibenz[2,3:6,7]oxedino[4,5-d]imidazol-2-ylthio)pentyl]-N'-(2,4-difluorophenyl)-N-heptylurea] | 60 | 1700 | – |
| CCCCCCCN(CCCCCSc1nc(-c2ccc(OC)cc2)c(-c2ccc(OC)cc2)[nH]1)C(=O)Nc1ccc(F)cc1F [Example 118, N-[5-[4,5-bis(4-methoxyphenyl)-1H-imidazol-2-ylthio]pentyl]-N'-(2,4-difluorophenyl)-N-heptylurea] | 170 | 100 | – |
| CCCCCCCN(CCCCCSc1nc(-c2ccccc2)c(-c2ccccc2)n1-c1ccccc1)C(=O)Nc1ccc(F)cc1F [Example 20] | 20 | 54500 | – |
| CCCCCCCN(CCCCCSc1nc(C(C)C)c(C(C)C)[nH]1)C(=O)Oc1ccccc1 [Example 411, phenyl N-[5-(4,5-bis(1-methylethyl)-1H-imidazol-2-ylthio]pentyl]-N-heptylcarbamat] | – | 500 | 310 |
| CCCCCCCN(CCCCCSc1nc(-c2ccccc2)c(-c2ccccc2)[nH]1)C(=O)NC [Example 7, N-[5-(4,5-diphenyl-1H-imidazol-2-ylthio)pentyl]-N-heptyl-N'-methylurea] | 41 | 7500 | – |
| CCCCCCCN(CCCCCSc1nc(-c2ccccc2)c(-c2ccccc2)[nH]1)C(=S)Nc1cccc(F)c1 [Example 300, N-[5-(4,5-diphenyl-1H-imidazol-2-ylthio)pentyl]-N'-(3-fluorophenyl)-N-heptylthiourea] | 130 | 900 | – |
| CCCCCCCN(CCCCCSc1nc(-c2ccccc2)c(-c2ccccc2)[nH]1)C(=O)Nc1cccc(F)c1 [Example 53, N-[5-(4,5-diphenyl-1H-imidazol-2-ylthio)pentyl]-N'-(3-fluorophenyl)-N-heptylurea] | 17 | 400 | – |
| CCCCCCCN(CCCCCSc1nc(-c2ccc(N(C)C)cc2)c(-c2ccc(N(C)C)cc2)[nH]1)C(=O)NC(C)C [Example 205, N-[5-[4,5-bis[4-(dimethylamino)phenyl]-1H-imidazol-2-ylthio]pentyl]-N-heptyl-N'-(1-methylethyl)urea] | 74 | 3 | – |
| CCCCCCCN(CCCCCSc1nc(-c2ccccc2)c(-c2ccccc2)[nH]1)C(=O)OCC [Example 404, Ethyl [5-(4,5-diphenyl-1H-imidazol-2-ylthio)pentyl]heptylcarbamate] | 33 | 500 | – |
| CCCCCCCN(CCCCCSc1nc(C(C)C)c(C(C)C)[nH]1)C(=O)NC(C)C [Example 210] | 17 | 800 | – |
| CCCCCCCN(CCCCCSc1nc(-c2ccc(OC)cc2)c(-c2ccc(OC)cc2)[nH]1)C(=O)Cc1ccc(Cl)c(Cl)c1 [Example 349] | 200 | 90 | – |
